Source: patent publication US20070135374A1, “Composition for promoting collagen production” (OTSUKA PHARMACEUTICAL CO., LTD., priority 2003, published 2007)

Assays:
[1] = system: human skin fibroblasts; experiment: Collagen production promoting effect of combined use of AMP2Na and UMP2Na on cultured human skin fibroblasts (PICP EIA), Test Example 2; type: cell-based
Method: (§1) 1) The freeze-preserved cells were dissolved in an LSGS (Low Serum Growth Supplement)-containing liquid culture medium 106S (manufactured by Kurabo Industries, Ltd.), and the cell concentration and medium amount were adjusted to 30000 cells/100 μl. 100 μl of thus obtained cell-containing liquid was poured into each well of a test plate.
2) AMP2Na solutions of various concentrations were prepared using a sterilized phosphate buffer solution, and then filtered through a filter, followed by sterilization. The resultants were added to a liquid medium 106S (manufactured by Kurabo Industries, Ltd.) to prepare AMP2Na-containing culture media of various concentrations (0 to 1×10^−5 w/v %).
3) Twenty four hours after injecting cells into the plate wells, it was confirmed that human fibroblasts adhered to the wells, and the medium was removed from each well. Subsequently, an AMP2Na-containing culture medium (200 μl) of one of various concentrations prepared in 2) above was added to each well. The mixtures were cultured at 37° C. under 5% CO2 for two days.
(§2) 4) Two days after culture initiation, the culture supernatant of each well was collected, and the amount of Procollagen type I C-peptide (PICP) was determined based on the amount of collagen in the culture supernatant using a Procollagen type I C-peptide (PIP) EIA Kit (manufactured by Takara Bio Inc.).
Evaluation of the collagen production promoting effect of the combined use of adenosine monophosphate disodium and uridine monophosphate disodium on cultured human skin fibroblasts.
The evaluation of the collagen production promoting effect of cultured human skin fibroblasts was conducted following the same procedure of Test Example 1 above except for using such media. In Table 1, the proportions of AMP2Na and UMP2Na were based on the concentration of AMP and UMP, respectively.

[2] = system: human skin fibroblasts; experiment: Collagen production promoting effect of AMP2Na on cultured human skin fibroblasts (PICP EIA), Test Example 1; type: cell-based; settings: 2 days culture, culture supernatant, FIG. 1
Method: Evaluation of the collagen production promoting effect of adenosine monophosphate disodium on cultured human skin fibroblasts.
Primary-cultured human skin fibroblasts (manufactured by Kurabo Industries, Ltd.) were cultured in a 10 cm petri dish, and the cultured cells were collected in the subconfluent state and then freeze-preserved. Using the freeze-preserved cells, an evaluation of the collagen production promoting effect of adenosine monophosphate disodium (hereinafter, referred to as “AMP2Na) was conducted. In the following, the proportion of AMP2Na was based on the concentration of AMP.
as §1, with “plate. […]” for “plate.”
as §2

Compound	action of promoting collagen production (PICP concentration) ([1]; AMP2Na alone 1×10^−6 w/v % (test medium 2) vs test medium 4, FIG. 2)	PICP amount relative to cells cultured in the AMP-free medium ([2]; AMP2Na 1×10^−5 w/v % in medium)	PICP amount as compared with cells cultured in an AMP-free medium ([2]; AMP2Na 1×10^−8 to 1×10^−5 w/v % in medium)	action of promoting collagen production (PICP concentration) ([1]; UMP2Na alone 1×10^−8 w/v % (test medium 3) vs test medium 4, FIG. 2)	potentiation of the action of promoting collagen production of AMP2Na (PICP concentration) ([1]; combined use: AMP2Na 1×10^−6 w/v % + UMP2Na 1×10^−8 w/v % (test medium 1), FIG. 2)
Nc1ncnc2c1ncn2[C@@H]1O[C@H](COP(=O)([O-])[O-])[C@@H](O)[C@H]1O.[Na+].[Na+] [AMP2Na, adenosine monophosphate disodium]	has an action of promoting collagen production	about 1.4 times	increased	–	–
O=c1ccn([C@@H]2O[C@H](COP(=O)([O-])[O-])[C@@H](O)[C@H]2O)c(=O)[nH]1.[Na+].[Na+] [UMP2Na, uridine monophosphate disodium]	–	–	–	no action of promoting collagen production	sharply potentiates
